Laboratory results reported in patent US20080090734A1, “DRUG SCREENING AND TARGET IDENTIFICATION USING SPR IMAGING OF TARGET PROTEIN ARRAYS” (The Trustees of California State University, priority 2006, published 2008).

Key:
Experiment in all cases: Antibiotic susceptibility profile
Format in all cases: cell-based, Acinetobacter baumannii
Design in all cases: key: Resistance; Intermediate; Susceptible
[1] = tested on: A. baumannii clinical isolate LAC 03
Excerpt: (§1) We obtained over thirty clinical isolates of A. baumannii from nosocomial infections in New York City and Los Angeles. […] Only antibiotics with breakpoints for A. baumannii were used. […] Isolates LA 01 to 20 were acquired from Los Angels County while NY-A to NY-H were obtained from New York City.
(§2) Antibiotic susceptibility profiles of clinical isolates of A. baumannii and reference strains. R, I, and S denote Resistance, Intermediate and Susceptible, respectively. Genetic Profiling of Clinical Isolates of A. baumannii

[2] = tested on: A. baumannii reference strain AYE
Excerpt: as §1, §2

[3] = tested on: A. baumannii clinical isolate LAC 11
Excerpt: as §1, §2

[4] = tested on: A. baumannii clinical isolate LAC 10
Excerpt: as §1, §2

[5] = tested on: A. baumannii clinical isolate LAC 05
Excerpt: as §1, §2

[6] = tested on: A. baumannii clinical isolate LAC 14
Excerpt: as §1, §2

[7] = tested on: A. baumannii clinical isolate LAC 04
Excerpt: as §1, §2

[8] = tested on: A. baumannii clinical isolate LAC 02
Excerpt: as §1, §2

[9] = tested on: A. baumannii clinical isolate LAC 01
Excerpt: as §1, §2

[10] = tested on: A. baumannii clinical isolate LAC 09
Excerpt: as §1, §2

[11] = tested on: A. baumannii clinical isolate NY G
Excerpt: as §1, §2

[12] = tested on: A. baumannii clinical isolate LAC 18
Excerpt: as §1, §2

[13] = tested on: A. baumannii clinical isolate LAC 20
Excerpt: as §1, §2

[14] = tested on: A. baumannii clinical isolate LAC 06
Excerpt: as §1, §2

[15] = tested on: A. baumannii clinical isolate LAC 12
Excerpt: as §1, §2

[16] = tested on: A. baumannii reference strain SDF
Excerpt: as §1, §2

[17] = tested on: A. baumannii clinical isolate NY C
Excerpt: as §1, §2

[18] = tested on: A. baumannii clinical isolate LAC 16
Excerpt: as §1, §2

[19] = tested on: A. baumannii clinical isolate NY D
Excerpt: as §1, §2

[20] = tested on: A. baumannii clinical isolate NY A
Excerpt: as §1, §2

[21] = tested on: A. baumannii reference strain 15839; conditions: strain 15839 (ATCC)
Excerpt: as §1, §2

[22] = tested on: A. baumannii clinical isolate NY B
Excerpt: as §1, §2

[23] = tested on: A. baumannii reference strain 17978; conditions: strain 17978 (ATCC)
Excerpt: as §1, §2

[24] = tested on: A. baumannii clinical isolate LAC 08
Excerpt: as §1, §2

[25] = tested on: A. baumannii reference strain 19606; conditions: strain 19606 (ATCC)
Excerpt: as §1, §2

[26] = tested on: A. baumannii clinical isolate LAC 07
Excerpt: as §1, §2

[27] = tested on: A. baumannii clinical isolate NY E
Excerpt: as §1, §2

[28] = tested on: A. baumannii clinical isolate LAC 19
Excerpt: as §1, §2

[29] = tested on: A. baumannii clinical isolate NY H
Excerpt: as §1, §2

[30] = tested on: A. baumannii clinical isolate LAC 17
Excerpt: as §1, §2

[31] = tested on: A. baumannii clinical isolate LAC 13
Excerpt: as §1, §2

[32] = tested on: A. baumannii clinical isolate LAC 15
Excerpt: as §1, §2

[33] = tested on: A. baumannii clinical isolate NY F
Excerpt: as §1, §2

Structure (SMILES): CN(C)c1ccc(O)c2c1C[C@H]1C[C@H]3[C@H](N(C)C)C(O)=C(C(N)=O)C(=O)[C@@]3(O)C(O)=C1C2=O [MIN, Minocycline]
- Antibiotic susceptibility [1]: S
- Antibiotic susceptibility [2]: S
- Antibiotic susceptibility [3]: R
- Antibiotic susceptibility [4]: S
- Antibiotic susceptibility [5]: S
- Antibiotic susceptibility [6]: R
- Antibiotic susceptibility [7]: S
- Antibiotic susceptibility [8]: S
- Antibiotic susceptibility [9]: S
- Antibiotic susceptibility [10]: S
- Antibiotic susceptibility [11]: S
- Antibiotic susceptibility [12]: S
- Antibiotic susceptibility [13]: S
- Antibiotic susceptibility [14]: S
- Antibiotic susceptibility [15]: R
- Antibiotic susceptibility [16]: S
- Antibiotic susceptibility [17]: S
- Antibiotic susceptibility [18]: S
- Antibiotic susceptibility [19]: S
- Antibiotic susceptibility [20]: S
- Antibiotic susceptibility [21]: S
- Antibiotic susceptibility [22]: R
- Antibiotic susceptibility [23]: S
- Antibiotic susceptibility [24]: S
- Antibiotic susceptibility [25]: S
- Antibiotic susceptibility [26]: S
- Antibiotic susceptibility [27]: I
- Antibiotic susceptibility [28]: S
- Antibiotic susceptibility [29]: S
- Antibiotic susceptibility [30]: S
- Antibiotic susceptibility [31]: R
- Antibiotic susceptibility [32]: S

Structure (SMILES): C[C@H]1COc2c(N3CCN(C)CC3)c(F)cc3c(=O)c(C(=O)O)cn1c23 [LVX, Levofloxacin]
- Antibiotic susceptibility [1]: R
- Antibiotic susceptibility [2]: I
- Antibiotic susceptibility [3]: R
- Antibiotic susceptibility [4]: R
- Antibiotic susceptibility [5]: R
- Antibiotic susceptibility [6]: R
- Antibiotic susceptibility [7]: S
- Antibiotic susceptibility [8]: I
- Antibiotic susceptibility [9]: I
- Antibiotic susceptibility [10]: R
- Antibiotic susceptibility [11]: R
- Antibiotic susceptibility [12]: R
- Antibiotic susceptibility [13]: R
- Antibiotic susceptibility [14]: S
- Antibiotic susceptibility [15]: R
- Antibiotic susceptibility [16]: S
- Antibiotic susceptibility [17]: R
- Antibiotic susceptibility [18]: R
- Antibiotic susceptibility [19]: R
- Antibiotic susceptibility [20]: I
- Antibiotic susceptibility [21]: R
- Antibiotic susceptibility [22]: R
- Antibiotic susceptibility [23]: S
- Antibiotic susceptibility [24]: R
- Antibiotic susceptibility [25]: S
- Antibiotic susceptibility [26]: R
- Antibiotic susceptibility [27]: R
- Antibiotic susceptibility [28]: I
- Antibiotic susceptibility [29]: I
- Antibiotic susceptibility [30]: R
- Antibiotic susceptibility [31]: R
- Antibiotic susceptibility [32]: R

Structure (SMILES): C[C@@H](O)[C@H]1C(=O)N2C(C(=O)O)=C(SCCN=CN)C[C@H]12 [IPM, Imipenem]
- Antibiotic susceptibility [1]: S
- Antibiotic susceptibility [2]: R
- Antibiotic susceptibility [3]: S
- Antibiotic susceptibility [4]: R
- Antibiotic susceptibility [5]: S
- Antibiotic susceptibility [6]: S
- Antibiotic susceptibility [7]: S
- Antibiotic susceptibility [8]: I
- Antibiotic susceptibility [9]: S
- Antibiotic susceptibility [10]: R
- Antibiotic susceptibility [11]: R
- Antibiotic susceptibility [12]: I
- Antibiotic susceptibility [13]: I
- Antibiotic susceptibility [14]: S
- Antibiotic susceptibility [15]: S
- Antibiotic susceptibility [16]: S
- Antibiotic susceptibility [17]: R
- Antibiotic susceptibility [18]: I
- Antibiotic susceptibility [19]: R
- Antibiotic susceptibility [20]: R
- Antibiotic susceptibility [21]: S
- Antibiotic susceptibility [22]: R
- Antibiotic susceptibility [33]: R
- Antibiotic susceptibility [23]: S
- Antibiotic susceptibility [24]: S
- Antibiotic susceptibility [25]: S
- Antibiotic susceptibility [26]: I
- Antibiotic susceptibility [27]: R
- Antibiotic susceptibility [28]: I
- Antibiotic susceptibility [29]: R
- Antibiotic susceptibility [30]: I
- Antibiotic susceptibility [31]: S
- Antibiotic susceptibility [32]: I

Structure (SMILES): C[C@@H](O)[C@H]1C(=O)N2C(C(=O)O)=C(S[C@@H]3CN[C@H](C(=O)N(C)C)C3)[C@H](C)[C@H]12 [MEM, Meropenem]
- Antibiotic susceptibility [1]: I
- Antibiotic susceptibility [2]: S
- Antibiotic susceptibility [3]: R
- Antibiotic susceptibility [4]: R
- Antibiotic susceptibility [5]: S
- Antibiotic susceptibility [6]: S
- Antibiotic susceptibility [7]: S
- Antibiotic susceptibility [8]: R
- Antibiotic susceptibility [9]: R
- Antibiotic susceptibility [10]: R
- Antibiotic susceptibility [11]: R
- Antibiotic susceptibility [12]: S
- Antibiotic susceptibility [13]: I
- Antibiotic susceptibility [14]: S
- Antibiotic susceptibility [15]: S
- Antibiotic susceptibility [16]: S
- Antibiotic susceptibility [17]: R
- Antibiotic susceptibility [18]: S
- Antibiotic susceptibility [19]: R
- Antibiotic susceptibility [20]: R
- Antibiotic susceptibility [21]: S
- Antibiotic susceptibility [22]: R
- Antibiotic susceptibility [33]: R
- Antibiotic susceptibility [23]: S
- Antibiotic susceptibility [24]: S
- Antibiotic susceptibility [25]: S
- Antibiotic susceptibility [26]: R
- Antibiotic susceptibility [27]: R
- Antibiotic susceptibility [28]: R
- Antibiotic susceptibility [29]: R
- Antibiotic susceptibility [30]: S
- Antibiotic susceptibility [31]: S
- Antibiotic susceptibility [32]: R
